The values that follow come from ChEMBL document CHEMBL1201862, “PubChem BioAssay data set” (2004).

The structures appear in SMILES notation. Activity calls are given as the source filed them. Some results are limits rather than exact numbers.

The target of assay [1] is DNA (cytosine-5)-methyltransferase 1 (Homo sapiens, UniProt P26358). Briefly: DNMT1 methyltransferase inhibitors, confirmation, biochemical, fluorescent molecular beacon (AID 602386). It is filed as functional.
Assay [2] has as its target T1, Carboxy-terminal domain RNA polymerase II polypeptide A small phosphatase 1 (Homo sapiens, UniProt Q9GZU7).
T1 sequence (Q9GZU7 whole entry): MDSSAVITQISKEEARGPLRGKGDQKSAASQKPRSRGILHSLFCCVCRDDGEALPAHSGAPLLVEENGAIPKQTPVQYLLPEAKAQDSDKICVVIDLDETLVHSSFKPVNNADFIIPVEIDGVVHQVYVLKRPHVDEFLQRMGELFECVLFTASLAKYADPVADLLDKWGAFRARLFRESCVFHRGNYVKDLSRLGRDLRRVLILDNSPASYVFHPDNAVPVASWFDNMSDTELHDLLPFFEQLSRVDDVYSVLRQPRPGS
Briefly: inhibitors of CTDSP1, concentration-response testing, biochemical assay, absorbance-based, actives from ultra-high-throughput screening (AID 540297). It is filed as functional.

Assay [3] deals with T2, Kappa-type opioid receptor (Homo sapiens, UniProt P41145). It is filed as functional.
Assay [4] deals with Beta-galactosidase (Escherichia coli, UniProt Q8VNN2). It is filed as functional.
Assay [5] addresses T2, Kappa-type opioid receptor. It is filed as functional. The source holds these as a separate data set.
In assay [6] the test system is H9c2. Briefly: cells. In kind it is functional, cell-based. To be noted: Rattus norvegicus, H9c2, Myocardium.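 Further: confirmatory concentration-response retest of ultra-high-throughput screening hits for modulation of myocardial damage; cell death induced by hydrogen peroxide oxidative stress; compound pretreatment for 60 min then peroxide exposure for 2 h; potency is for protecting the cells against peroxide damage rather than for killing them.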
A short description of assay [7]: Shn3 3'UTR reporter inhibitors, dose response, cell-based, Clone20 osteoblasts, firefly luciferase, cherry-picked (AID 624132).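 Further: firefly luciferase luminescence from reporter carrying the Shn3 3'UTR in osteoblasts.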 In kind it is functional.
Assay [8] in a line: HepG2 cell cytotoxicity, dose response, cytotoxicity control for Shn3 inhibitor project, CellTiter-Glo, cherry-picked (AID 624134). In kind it is functional, cell-based.
A short description of assay [9]: control 3'UTR Renilla luciferase suppression, dose response, counter-screen for Shn3 inhibitor project, cell-based, Clone20-Shn3RL, cherry-picked (AID 624133). In kind it is functional.
The nature of assay [10]: CEM21 lymphoblast cell cytotoxicity, dose response, cytotoxicity control for viral fusion inhibitor project, CellTiter-Glo luminescence, cherry-picked (AID 652042).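 Further: potency for signal decrease meaning cytotoxicity.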 In kind it is functional, cell-based.
Assay [11] is described as follows: inhibitors of clade B AD8 Env fusion, dose response, cell-based, cherry-pick (AID 652062).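 Further: luciferase signal from cell-cell fusion driven by HIV-1 clade B AD8 Env; potency is for inhibitors of fusion seen as a drop in luminescence.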 It is filed as functional.
Assay [12] concerns the target T3, Short transient receptor potential channel 4 (Mus musculus, UniProt Q9QUQ5).
T3 sequence (Q9QUQ5 whole entry): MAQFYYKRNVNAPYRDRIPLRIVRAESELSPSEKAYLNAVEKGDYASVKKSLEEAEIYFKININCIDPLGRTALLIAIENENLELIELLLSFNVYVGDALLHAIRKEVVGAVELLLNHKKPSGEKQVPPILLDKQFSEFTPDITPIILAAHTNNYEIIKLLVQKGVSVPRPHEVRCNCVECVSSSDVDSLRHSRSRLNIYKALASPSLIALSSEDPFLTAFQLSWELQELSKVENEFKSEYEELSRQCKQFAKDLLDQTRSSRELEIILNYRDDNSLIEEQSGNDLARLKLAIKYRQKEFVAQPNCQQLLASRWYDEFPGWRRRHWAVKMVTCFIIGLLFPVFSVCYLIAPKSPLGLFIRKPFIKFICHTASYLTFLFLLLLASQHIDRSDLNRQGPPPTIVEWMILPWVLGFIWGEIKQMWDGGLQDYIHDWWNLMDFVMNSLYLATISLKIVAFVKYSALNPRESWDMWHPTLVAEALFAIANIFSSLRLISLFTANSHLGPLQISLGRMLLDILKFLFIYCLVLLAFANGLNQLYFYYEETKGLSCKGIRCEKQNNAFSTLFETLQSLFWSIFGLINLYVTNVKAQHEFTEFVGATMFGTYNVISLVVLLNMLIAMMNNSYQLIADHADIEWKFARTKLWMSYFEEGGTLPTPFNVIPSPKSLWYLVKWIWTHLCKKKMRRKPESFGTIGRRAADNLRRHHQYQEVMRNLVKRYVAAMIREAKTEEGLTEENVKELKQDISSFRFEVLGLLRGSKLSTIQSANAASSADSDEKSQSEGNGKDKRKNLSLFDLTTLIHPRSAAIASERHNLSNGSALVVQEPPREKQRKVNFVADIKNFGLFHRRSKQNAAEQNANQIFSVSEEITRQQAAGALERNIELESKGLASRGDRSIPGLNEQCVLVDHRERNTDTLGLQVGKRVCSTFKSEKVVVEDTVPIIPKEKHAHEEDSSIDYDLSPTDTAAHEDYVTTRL
Nature of the assay: mouse TRPC4 channel activators, dose response, cell-based, HEK293 TRPC4/mu-opioid, Fluo-4 calcium (AID 434937). In kind it is functional.

Assay [13] deals with Peroxisome proliferator-activated receptor gamma/Nuclear receptor coactivator 1 (Homo sapiens, UniProt P37231). Nature of the assay: TR-FRET dose response biochemical High Throughput Screening assay for agonists of the steroid receptor coactivator 1 (SRC-1) recruitment by the peroxisome proliferator-activated receptor gamma (PPAR gamma): non-selective agonists. [Related pubchem assays (depositor defined):AID1300, AID1808, AID504735, AID631]. In kind it is protein assay.

Assay [14] has as its target Peroxisome proliferator-activated receptor gamma/Nuclear receptor coactivator 3 (Homo sapiens, UniProt P37231). Briefly: TR-FRET dose response biochemical High Throughput Screening assay for agonists of the steroid receptor coactivator 3 (SRC-3) recruitment by the peroxisome proliferator-activated receptor gamma (PPAR gamma): non-selective agonists. [Related pubchem assays: 1301 (Confirmation screen.), 1048 (Primary screen.)]. In kind it is functional.

In assay [15] the target is Peroxisome proliferator-activated receptor gamma/Nuclear receptor coactivator 2 (Homo sapiens, UniProt P37231). Nature of the assay: TR-FRET dose response biochemical High Throughput Screening assay for agonists of the steroid receptor coactivator 2 (SRC-2) recruitment by the peroxisome proliferator-activated receptor gamma (PPAR gamma): non-selective agonists. [Related pubchem assays: 1297, 1032 ]. It is filed as functional.

For assay [16], the target named is Glyceraldehyde-3-phosphate dehydrogenase (Homo sapiens, UniProt P04406).
The target in assay [17] is T4, Alkaline phosphatase, tissue-nonspecific isozyme (Homo sapiens, UniProt P05186).
T4 sequence (P05186 whole entry): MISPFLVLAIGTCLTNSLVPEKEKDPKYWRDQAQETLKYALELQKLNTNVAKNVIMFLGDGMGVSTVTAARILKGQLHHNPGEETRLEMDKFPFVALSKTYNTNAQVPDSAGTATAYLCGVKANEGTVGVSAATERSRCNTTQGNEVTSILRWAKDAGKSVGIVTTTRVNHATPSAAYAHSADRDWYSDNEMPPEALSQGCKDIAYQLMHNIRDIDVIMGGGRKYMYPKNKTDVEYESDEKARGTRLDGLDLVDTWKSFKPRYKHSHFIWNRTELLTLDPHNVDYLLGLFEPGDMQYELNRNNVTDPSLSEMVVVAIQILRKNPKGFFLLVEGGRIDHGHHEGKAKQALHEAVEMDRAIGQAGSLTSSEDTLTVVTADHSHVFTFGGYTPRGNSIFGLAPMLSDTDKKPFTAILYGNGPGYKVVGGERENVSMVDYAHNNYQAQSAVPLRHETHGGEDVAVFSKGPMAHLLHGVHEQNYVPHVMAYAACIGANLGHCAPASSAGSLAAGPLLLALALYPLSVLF
Briefly: human TNAP enzyme inhibitors, SAR follow-up, biochemical, luminescent, dose response (AID 1056).

The nature of assay [18]: HEp-2 cell cytotoxicity, dose response, cytotoxicity control for RSV inhibitor project, HTS (AID 2410). In kind it is functional. Conditions: human respiratory syncytial virus.
Assay [19] deals with DNA dC->dU-editing enzyme APOBEC-3A (Homo sapiens, UniProt P31941). Briefly: APOBEC3A DNA deaminase inhibitors, dose response, biochemical (AID 504722). It is filed as functional.
Assay [20] addresses DNA dC->dU-editing enzyme APOBEC-3G (Homo sapiens, UniProt Q9HC16). Briefly: Dose Response confirmation of small molecule APOBEC3G DNA Deaminase Inhibitors via a fluorescence-based single-stranded DNA deaminase assay. [Related pubchem assays (depositor defined):AID493012, AID493028]. It is filed as functional.
The target of assay [21] is T5, Ubiquitin-conjugating enzyme E2 N (Homo sapiens, UniProt P61088).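 Further: Dose-response confirmation in a TR-FRET assay detecting UBC13-driven polyubiquitin chain formation, inhibition measured.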
T5 sequence (P61088 whole entry): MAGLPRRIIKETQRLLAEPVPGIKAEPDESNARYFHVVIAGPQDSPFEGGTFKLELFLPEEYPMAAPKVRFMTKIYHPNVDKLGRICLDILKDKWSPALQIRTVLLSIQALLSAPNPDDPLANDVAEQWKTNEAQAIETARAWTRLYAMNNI
In kind it is functional.

Assay [22] addresses Major prion protein (Homo sapiens, UniProt P04156). In kind it is functional, cell-based.
The nature of assay [23]: cells.
In assay [24] the target is T6, Rac GTPase-activating protein 1 (Homo sapiens, UniProt Q9H0H5).
T6 sequence (Q9H0H5 whole entry): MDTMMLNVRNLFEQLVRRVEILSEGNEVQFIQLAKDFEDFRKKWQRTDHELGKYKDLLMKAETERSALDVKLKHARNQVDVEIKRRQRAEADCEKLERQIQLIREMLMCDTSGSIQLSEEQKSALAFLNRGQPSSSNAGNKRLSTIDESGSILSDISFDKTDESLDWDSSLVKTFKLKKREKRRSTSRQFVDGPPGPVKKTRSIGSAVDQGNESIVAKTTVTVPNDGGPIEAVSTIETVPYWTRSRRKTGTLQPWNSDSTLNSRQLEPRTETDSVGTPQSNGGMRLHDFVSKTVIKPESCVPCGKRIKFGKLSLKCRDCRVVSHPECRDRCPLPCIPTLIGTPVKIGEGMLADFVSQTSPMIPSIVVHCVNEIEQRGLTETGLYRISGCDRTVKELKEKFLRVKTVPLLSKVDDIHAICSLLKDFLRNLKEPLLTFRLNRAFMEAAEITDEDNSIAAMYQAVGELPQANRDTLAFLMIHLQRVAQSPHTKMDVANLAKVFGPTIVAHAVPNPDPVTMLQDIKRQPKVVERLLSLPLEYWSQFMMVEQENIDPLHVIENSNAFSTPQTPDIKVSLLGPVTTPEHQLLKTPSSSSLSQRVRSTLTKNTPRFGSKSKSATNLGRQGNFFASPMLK
Nature of the assay: MgcRacGAP GTPase-activating activity inhibitors, confirmation, biochemical, ADP Hunter fluorescence, primary and confirmatory (AID 624330). It is filed as functional.

For assay [25], the target named is T7, Polyadenylate-binding protein 1 (Homo sapiens, UniProt P11940). Nature of the assay: PABP1 MLLE–PAM2 interaction inhibitors, dose response, miRNA deadenylation inhibitor project, biochemical, fluorescence polarization, Cy5-PAM2 peptide, secondary (AID 602260). It is filed as functional. To be noted: read-out: IC50_Mean.
The target in assay [26] is T7, Polyadenylate-binding protein 1. Briefly: PABP1 MLLE–PAM2 binding inhibitor potency, dose response, biochemical, fluorescence polarization, FITC-PAM2 peptide (AID 602259). In kind it is functional. Conditions: read-out: IC50_Mean.

Regarding `CCOC(=O)C1CCCN(C(=O)c2cc(-c3ccco3)nc3ccccc23)C1` (configuration not stated), the IC50 in [1] is 6.42 µM (active).
`COc1ccc(/C(C)=N/NC(=O)CNC(=O)/C=C\c2ccco2)cc1`: the IC50 in assay [2] is 6.67 µM (active).
Take `O=C(NNC(=O)C(c1ccccc1)c1ccccc1)c1ccccn1`: the IC50 in assay [3] is 17.5 µM (active); in [5] it was above 32 µM; in assay [6], > 79 µM (inactive). Also, the EC50 in assay [4] is > 31.5 µM (inactive). Moreover, the AC50 in [7] was 2.87 µM (active); in assay [8], 5.11 µM (active); in [9], 2.52 µM (active); in [10], 3.53 µM (active); in assay [11], 585 nM (active).
Consider `CC(C)c1ccc(NC(=S)N(C)CCc2ccccn2)cc1`, for which the EC50 in assay [12] was 5.96 µM (active).
As for `COC(=O)c1sccc1-c1ccc(/C=N/OC(=O)c2ccccc2)o1`, the EC50 in assay [13] is 12.2 µM (inactive); in assay [14], > 79.4 µM (not active); in assay [15], 12.7 µM (not active).
Regarding `c1cncc(-c2nnn[nH]2)c1`, the IC50 in assay [16] is > 100 µM (not active); in [17], > 100 µM (inactive).
As for `CCCCN(CC)CCNC(=O)c1cc2c(C)nc3ccccc3c2o1`, the EC50 in [12] is 0.944 µM (active).
Regarding `Cc1nn(-c2ccccc2)c(C)c1/C=N/n1c(S)nnc1-c1ccncc1`, in assay [18], the 50% cytotoxic concentration (CC50) is > 50 µM (active). Moreover, the IC50 in assay [19] is > 100 µM (inactive); in [20] it was 2.75 µM (active).
Turning to `CCOc1ccc(C(C)C)cc1S(=O)(=O)Nc1cccnc1`, the IC50 in assay [16] is > 100 µM (not active); in assay [17], 3.52 µM (active).
`O=C(Cc1cccs1)NCCSc1c(-c2ccc(Cl)cc2)[nH]c2ccccc12`: the EC50 was 12.3 µM (inactive) in [13], > 2.94 µM (active) in assay [14] and 15.6 µM (not active) in assay [15].
As for `Sc1[nH]cnc2c3ccccc3nc1-2`, the IC50 in assay [19] was > 100 µM (inactive); in assay [21] it was > 20 µM (inactive); in [20], 3.65 µM (active); in [22], 1.5 µM (active); in [23], > 138 µM (inactive).
Turning to `Fc1ccc(COc2cccc(-c3nnc(S)o3)c2)cc1`, the results for the half-maximal effective concentration (EC50) in [13], in assay [14] and in assay [15] were 9.44 µM (active), > 79.4 µM (not active) and 8.05 µM (active), respectively.
Consider `Fc1ccc(C(c2nnnn2Cc2cccs2)N2CCN(C3CCCCC3)CC2)cc1` (configuration not stated), for which the EC50 in assay [12] is 1.19 µM (active).
For the compound `Cc1cc(-c2nnc(S)n2/N=C/c2cccc(O)c2)[nH]n1`, the values for the IC50 in [19], in [20] and in assay [24] were > 100 µM (inactive), 2.51 µM (active) and 157 µM (active), respectively.
Consider `O=S(=O)(c1ccc(=S)[nH]c1)N1CCOCC1`, for which the IC50 in assay [19] was > 100 µM (inactive); in assay [20], 12.6 µM (active); in [25], > 66 µM (inactive); in assay [26], > 66 µM (inactive).
